Assay results from article PMC10460844, “Real‐Time Monitoring of Multitarget Antimicrobial Mechanisms of Peptoids Using Label‐Free Imaging with Optical Diffraction Tomography” (Advanced Science, 2023).
≈ marks a conversion by molar mass, not a printed value. Like-named read-outs stand apart in the source and are kept apart here.

How the values were obtained:
E. coli ATCC 25922 [1] = test: Thioflavin S fluorescence imaging of intracellular aggregation; assay type: cell-based; details: 29 and peptoid 1 at 4 × MIC, control peptides 2 × MIC
rat erythrocytes = test: Hemolysis assay; assay type: cell-based; details: for H max (100 µM): percentage of hemolysis at the highest concentration tested (100 µM), rat erythrocytes
Method in brief: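 Washed Sprague-Dawley rat erythrocytes (10% suspension in PBS pH 7.4) mixed with peptoids (0–100 µM), 60 min at 37 °C; supernatant A540 expressed as % of 1% Triton X-100 lysis. HC10/HC50 are concentrations giving 10%/50% hemolysis; Hmax is hemolysis at 100 µM.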

E. coli ATCC 25922 [2] = assay type: cell-based; details: ODT, 30 min treatment; buforin-II 25 µM, melittin 25 µM, 29 4 × MIC
Procedure: Three‐dimensional (3D) optical diffraction tomography (ODT) and fluorescence images of live bacterial cells were obtained using an HT‐2H Mach−Zehnder interferometric microscope, combining both ODT and fluorescence imaging into a single unit (Tomocube, Daejon, South Korea). 3D Fluorescence imaging was carried out, using three light sources (385, 470, and 565 nm) via serial fluorescence image acquisition in multiple planes followed by 3D deconvolution. 3D correlative imaging, using a combination of ODT and fluorescence imaging was performed using commercial software (TomoStudioTM, Tomocube) as described previously^[ [23c] ^] Bacterial cells were grown overnight and diluted (≈10^7 CFU mL^−1) in cation‐adjusted MHB2 media. The cells were loaded onto 50 mm imaging dishes with a #1.5H glass coverslip bottom (TomoDish, Tomocube) that were precoated with 0.01% (w/v) poly‐L‐lysine (Sigma‐Aldrich) in water. After 30 min incubation at room temperature, the coverslips were washed twice with PBS (pH 7.4) to remove unattached cells, and the media was replaced with PBS for the duration of the imaging. To monitor the change in bacterial morphology, bacterial cells were treated with a peptoid (or with control AMPs) in PBS containing FM4‐64 (10 µg mL^−1) or propidium iodide (10 µg mL^−1). To analyze 3D refractive index (RI) tomograms, individual bacteria were captured using ODT equipped with a digital micromirror device (Tomocube). In more detail, the light scattered by the bacterial cells was collected by an objective lens (NA = 1.2, water dipping, UPLSAPO 60XW, Olympus) and recorded by a digital image sensor (CMOS camera, FL3‐U313Y3M‐C, FLIR Systems). Using a field retrieval algorithm, the amplitude and phase images were retrieved from the obtained multiple holograms, and then the 3D RI distribution was determined.
The analysis tool in the TomoStudio software (Tomocube) was used to measure specific values, including the refractive index (RI) and the cell volume of bacteria. These values were determined from RI increments (RII) of 0.190 fL pg^−1, which is known as a representative value and was assumed to be the same for most proteins.^[ [46] ^]

[3] = Analytical reversed-phase HPLC elution (hydrophobicity); assay type: physicochemical; details: analytical RP-HPLC, 1 mL/min, UV 220 nm; for HPLC elution (%ACN): Table 1, SunFire C18 […] 250 mm, water/ACN + 0.1% TFA, 5% B 2 min then linear to 100% B over 30 min, used as measure of hydrophobicity; for HPLC elution: Table S1, SunFire C18, water/ACN + 0.1% TFA, 5 to 100% B linear over 30 min, approximate comparison of hydrophobicity
Method in brief: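 Retention time (tR) reflects hydrophobicity, with detection at 220 nm. Elution used a 5–100% acetonitrile linear gradient over 30 min after a 2 min hold at 5%, then 5 min at 100%, with both phases containing 0.1% TFA. Column was an analytical C18 (4.6 × 250 mm, 5 μm) run at 1 mL/min.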

K. pneumonia ESBL 61962 = assay type: cell-based
S. typhimurium SL 1344 = assay type: cell-based; details: SL 1344
E. coli ESBL 63103 = assay type: cell-based
E. coli ATCC 25922 [4] = test: NPN uptake assay (outer membrane); assay type: cell-based; details: E. coli ATCC 25922, 5 mM HEPES pH 7.2, 10 µM NPN, fluorescence
Procedure: 14. In vitro biological assays […]
The ability of peptoids to increase the permeability of the outer membrane of Gram-negative bacteria was determined by measuring the incorporation of the NPN fluorescent dye into the outer membrane of E. coli ATCC 25922. Bacterial cells were suspended to a final concentration of OD600 = 0.05 in 5 mM HEPES buffer, pH 7.2, containing 5 mM KCN. Then […]
200 μL NPN dye was added to wells of a 96 well plate to produce a final concentration of 10 μM, and the background fluorescence was recorded (λex = 350 nm, λem = 420 nm). Aliquots of peptoids were added to the well, and fluorescence was recorded as a function of time until there was no further increase in fluorescence. Increases of the permeability of the outer membrane after the addition of peptoids was reflected by increased fluorescence values as a result of NPN incorporation into the membrane. […]

E. coli ATCC 25922 [5] = assay type: cell-based, Escherichia coli; details: mean of triplicate
Method in brief: (§1)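 MIC = lowest peptoid concentration with no turbidity on visual inspection. Bacteria (≈2–5 × 10^5 CFU mL^−1) were exposed in MHB2 with 0.02% BSA and 0.001% acetic acid to six two-fold serial dilutions, top concentration 25 µM; triplicates.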

P. aeruginosa MDR-198 = assay type: cell-based
S. aureus MRSA C623 = assay type: cell-based
E. coli ML-35 cells = test: ONPG hydrolysis assay (inner membrane); assay type: cell-based; details: 1.5 mM ONPG, 10 mM sodium phosphate pH 7.4, absorbance 405 nm
Procedure: The permeability of the inner membrane was determined using E. coli ML-35 cells […]
The intact bacterial inner membrane is non-permeable to o-nitrophenyl-β-D-galactopyranoside (OPNG), a chromogenic substrate of the β-galactosidase.
Following damage to the inner membrane, OPNG enters the cells and is metabolized by β-galactosidase creating a chromogenic […]. E. coli cells were washed in 10 mM sodium phosphate (pH 7.4) containing 100 mM NaCl and resuspended in the same buffer at a final concentration of OD600 = 0.5 containing 1.5 mM ONPG. The hydrolysis of ONPG and generation of o-nitrophenol over time were monitored as absorbance change at 405 nm following the addition of peptoids. […]

E. faecalis KCTC 3511 = assay type: cell-based; details: KCTC 3511
S. aureus ATCC 25923 = assay type: cell-based, Staphylococcus aureus; details: mean of triplicate
Method in brief: as §1

[6] = remark linked to increased retention time of N4hb peptoids
human cells and animals = details: cited from earlier work
[7] = Table S2, broth dilution, MHB2, 37 °C 24 h, max 25 µM

Compound | H max (100 µM) (rat erythrocytes) | HPLC elution (%ACN) [3] | Hmax (100 µM) (rat erythrocytes) | HC10 (rat erythrocytes; pH 7.4) | HC50 (rat erythrocytes; pH 7.4) | aqueous solubility [6] | HPLC elution [3] | also measured
CC[C@H](C)[C@H](NC(=O)CN)C(=O)NCC(=O)N[C@@H](C)C(=O)N[C@H](C(=O)N[C@@H](CC(C)C)C(=O)N[C@@H](CCCCN)C(=O)N[C@H](C(=O)N[C@@H](CC(C)C)C(=O)N[C@H](C(=O)N[C@H](C(=O)NCC(=O)N[C@@H](CC(C)C)C(=O)N1CCC[C@H]1C(=O)N[C@@H](C)C(=O)N[C@@H](CC(C)C)C(=O)N[C@H](C(=O)N[C@@H](CO)C(=O)N[C@@H](Cc1c[nH]c2ccccc12)C(=O)N[C@H](C(=O)N[C@@H](CCCCN)C(=O)N[C@@H](CCCNC(=N)N)C(=O)N[C@@H](CCCCN)C(=O)N[C@@H](CCCNC(=N)N)C(=O)N[C@@H](CCC(N)=O)C(=O)N[C@@H](CCC(N)=O)C(N)=O)[C@@H](C)CC)[C@@H](C)CC)[C@@H](C)O)[C@@H](C)O)C(C)C)C(C)C [Melittin, reference compound] | 105.7 ± 17.6% | 55.4 %ACN | – | – | – | – | – | Th S fluorescence (intracellular biomass aggregation) (E. coli ATCC 25922 [1]): enhanced Th S fluorescence; change of cell volume (E. coli ATCC 25922 [2]): notable reduction in cell volume; change of mean RI value versus control cells (E. coli ATCC 25922 [2]): significantly increased mean RI values
C[C@@H](c1ccccc1)N(CC(N)=O)C(=O)CN(CCCCN)C(=O)CN(CCCCN)C(=O)CN(C(=O)CN(C(=O)CN(CCCCN)C(=O)CN(C(=O)CN(C(=O)CN(CCCCN)C(=O)CN(CCc1c[nH]c2ccccc12)C(=O)CN(CCc1c[nH]c2ccccc12)C(=O)CNCCCCN)[C@@H](C)c1ccccc1)[C@@H](C)c1ccccc1)[C@@H](C)c1ccccc1)[C@@H](C)c1ccccc1 [peptoid 32] | 15.9 ± 1.5% | 48.4 %ACN | 4.2±1.0% | 77.7 µM | > 100 µM | – | – | MIC K. pneumonia ESBL 61962 (K. pneumonia ESBL 61962): 12.5 to 25 µM; MIC S. typhimurium SL 1344 (S. typhimurium SL 1344): 6.3 µM (≈ 11.7 µg/mL); HC10 (rat erythrocytes; red cells of rat): > 100 µM; MIC E. coli ESBL 63103 (E. coli ESBL 63103): 12.5 to 25 µM; outer membrane disruption (NPN uptake) (E. coli ATCC 25922 [4]): somewhat lower; MIC E. coli ATCC25922 (E. coli ATCC 25922 [5]; [7]): 6.3 µM (≈ 11.7 µg/mL); MIC E. coli ATCC25922 (E. coli ATCC 25922 [5]; Table S3, counter-ion exchange series (TFA, HCl, AcOH salts)): 6.3 µM; MIC P. aeruginosa MDR-198 (P. aeruginosa MDR-198): 6.3 to 12.5 µM; MIC S. aureus MRSA C623 (S. aureus MRSA C623): 3.1 to 6.3 µM; inner membrane disruption (ONPG hydrolysis) (E. coli ML-35 cells): lower than that seen with more hydrophobic peptoids; MIC E. faecalis KCTC 3511 (E. faecalis KCTC 3511): 6.3 µM (≈ 11.7 µg/mL); MIC S. aureus ATCC25923 (S. aureus ATCC 25923; [7]): 3.1 µM (≈ 5.78 µg/mL); MIC S. aureus ATCC25923 (S. aureus ATCC 25923; Table S3, counter-ion exchange series): 3.1 µM (≈ 5.78 µg/mL)
C[C@@H](c1ccccc1)N(CC(N)=O)C(=O)CN(CCCCN)C(=O)CN(C(=O)CN(C(=O)CN(CCCCN)C(=O)CN(C(=O)CN(CCCCN)C(=O)CN(CCCCN)C(=O)CN(C(=O)CN(C(=O)CN(CCCCN)C(=O)CN(C(=O)CNCCc1c[nH]c2ccccc12)[C@@H](C)c1ccccc1)[C@@H](C)c1ccccc1)[C@@H](C)c1ccccc1)[C@@H](C)c1ccccc1)[C@@H](C)c1ccccc1)[C@@H](C)c1ccccc1 [peptoid 63] | – | – | 12.7±0.9% | 85.0 µM | > 100 µM | poor aqueous | 49.9 % MeCN | –
C[C@@H](c1ccccc1)N(CC(N)=O)C(=O)CN(CCCCN)C(=O)CN(C(=O)CN(C(=O)CN(CCCCN)C(=O)CN(C(=O)CN(C(=O)CN(CCCCN)C(=O)CN(C(=O)CN(CCCCN)C(=O)CN(CCCCN)C(=O)CN(C(=O)CNCCc1c[nH]c2ccccc12)[C@@H](C)c1ccccc1)[C@@H](C)c1ccccc1)[C@@H](C)c1ccccc1)[C@@H](C)c1ccccc1)[C@@H](C)c1ccccc1)[C@@H](C)c1ccccc1 [peptoid 64] | – | – | 18.9±2.9% | 70.7 µM | > 100 µM | poor aqueous | 50.5 % MeCN | –
KKIRVRLSA [M33-TFA] | – | – | – | – | – | – | – | toxicity of M33-TFA above that of M33-AcOH (human cells and animals): 5-30%
